Test results: ChEMBL document CHEMBL1201862, “PubChem BioAssay data set” (2004)
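Interpolation was linear, between the two tested concentrations surrounding the appropriate level; five concentrations were tested over 48 hours in 96-well plates. GI50 is the concentration that inhibits growth by half.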 The source made the active and inactive calls. No stated cut-off is given here; in the data, active = GI50 up to about 1.1 µM and inactive = higher. Where a SMILES comes first, the peptide text is derived from it. [ ]: non-standard residue; d: D form. The star is where a group is joined. Cbz = O=C(OCc1ccccc1)*; Aib = CC(C)(N)C(=O)O

Tests used:
Test in all cases: NCI tumour cell line growth inhibition, 48 h
NCI-H522 = tested on: NCI-H522
UACC-257 = tested on: UACC-257
IGROV-1 = tested on: IGROV-1
MOLT-4 = tested on: MOLT-4
SK-MEL-2 = tested on: SK-MEL-2
MCF7 = tested on: MCF7
HL-60 = tested on: HL-60
SF-295 = tested on: SF-295
UACC-62 = tested on: UACC-62
HCC 2998 = tested on: HCC 2998
HOP-62 = tested on: HOP-62
UO-31 = tested on: UO-31
SN12C = tested on: SN12C
CCRF-CEM = tested on: CCRF-CEM
COLO 205 = tested on: COLO 205
SF-268 = tested on: SF-268
SK-MEL-5 = tested on: SK-MEL-5
A549 = tested on: A549
OVCAR-4 = tested on: OVCAR-4
K562 = tested on: K562

| SMILES | GI50 (NCI-H522) | GI50 (UACC-257) | GI50 (IGROV-1) | GI50 (MOLT-4) | GI50 (SK-MEL-2) | GI50 (MCF7) | GI50 (HL-60) | GI50 (SF-295) | GI50 (UACC-62) | GI50 (HCC 2998) | GI50 (HOP-62) | GI50 (UO-31) | GI50 (SN12C) | GI50 (CCRF-CEM) | GI50 (COLO 205) | GI50 (SF-268) | GI50 (SK-MEL-5) | GI50 (A549) | GI50 (OVCAR-4) | GI50 (K562) |
| --- | --- | --- | --- | --- | --- | --- | --- | --- | --- | --- | --- | --- | --- | --- | --- | --- | --- | --- | --- | --- |
| O=C(NNC(=S)NC1CCCCC1)c1csc(NC(=S)NC2CCCCC2)n1 | 12 µM (inactive) | 3.24 µM (inactive) | 3.52 µM (inactive) | 3.42 µM (inactive) | 15.5 µM (inactive) | 7.55 µM (inactive) | > 100 µM (inactive) | 5.87 µM (inactive) | 4.45 µM (inactive) | 3.12 µM (inactive) | 12.4 µM (inactive) | 0.948 µM (active) | 5.6 µM (inactive) | 5.73 µM (inactive) | 3.22 µM (inactive) | 6.21 µM (inactive) | 2.01 µM (inactive) | 7.89 µM (inactive) | – | – |
| COc1cc2c(cc1OC)C13CCN4C=C5CCOC6CC(=O)N2C1C6C5CC43 (stereo not given) | > 100 µM (inactive) | > 100 µM (inactive) | > 100 µM (inactive) | > 100 µM (inactive) | > 100 µM (inactive) | > 100 µM (inactive) | > 100 µM (inactive) | > 100 µM (inactive) | > 100 µM (inactive) | – | > 100 µM (inactive) | > 100 µM (inactive) | > 100 µM (inactive) | > 100 µM (inactive) | > 100 µM (inactive) | > 100 µM (inactive) | > 100 µM (inactive) | > 100 µM (inactive) | > 100 µM (inactive) | > 100 µM (inactive) |
| CN(C)/C=N/Cc1ccc2c(c1)OCO2 | > 100 µM (inactive) | > 100 µM (inactive) | > 100 µM (inactive) | > 100 µM (inactive) | > 100 µM (inactive) | > 100 µM (inactive) | – | > 100 µM (inactive) | > 100 µM (inactive) | > 100 µM (inactive) | > 100 µM (inactive) | > 100 µM (inactive) | > 100 µM (inactive) | > 100 µM (inactive) | > 100 µM (inactive) | > 100 µM (inactive) | > 100 µM (inactive) | > 100 µM (inactive) | > 100 µM (inactive) | > 100 µM (inactive) |
| CC(=O)OCC1C(C(C)OC(C)=O)CCC2C1CCC1(C)C(OC(C)=O)CCC21 (stereo not given) | 20.6 µM (inactive) | 16.7 µM (inactive) | 20 µM (inactive) | 16.6 µM (inactive) | – | 19.1 µM (inactive) | 17.1 µM (inactive) | 21 µM (inactive) | 12.9 µM (inactive) | 18.8 µM (inactive) | 21.5 µM (inactive) | 61.9 µM (inactive) | 18 µM (inactive) | 19.8 µM (inactive) | – | 23.9 µM (inactive) | 16.6 µM (inactive) | 18.9 µM (inactive) | 19.8 µM (inactive) | 11.2 µM (inactive) |
| CCCCCC(/C=C/C1CCC(=O)C1CC#C[Si](C)(C)C)OCc1ccccc1 (stereo not given) | 14 µM (inactive) | 17.2 µM (inactive) | 14.5 µM (inactive) | > 37.8 µM (inactive) | 15.5 µM (inactive) | 19.1 µM (inactive) | – | 17.1 µM (inactive) | 13.5 µM (inactive) | 17.9 µM (inactive) | 19.1 µM (inactive) | 15.5 µM (inactive) | 19.8 µM (inactive) | 10.5 µM (inactive) | 19.2 µM (inactive) | 14.3 µM (inactive) | 13.2 µM (inactive) | 21.5 µM (inactive) | 26.9 µM (inactive) | 19.1 µM (inactive) |
| CC(=O)Oc1ccc2cc(Oc3ccc(Cl)c(Cl)c3)c(=O)oc2c1 | 21.2 µM (inactive) | 25.1 µM (inactive) | 29.4 µM (inactive) | 18.3 µM (inactive) | – | 34.8 µM (inactive) | 60.5 µM (inactive) | 38.1 µM (inactive) | – | 19.5 µM (inactive) | 25.2 µM (inactive) | 15.5 µM (inactive) | 24.9 µM (inactive) | 18.3 µM (inactive) | – | 34 µM (inactive) | 20.3 µM (inactive) | 31.3 µM (inactive) | 41.8 µM (inactive) | 25.4 µM (inactive) |
| CNC(=O)N(CCC#N)[C@H]1CCCC[C@@H]1N(C(=O)NC)c1ccccc1 | > 100 µM (inactive) | > 100 µM (inactive) | > 100 µM (inactive) | > 100 µM (inactive) | > 100 µM (inactive) | > 100 µM (inactive) | – | > 100 µM (inactive) | > 100 µM (inactive) | > 100 µM (inactive) | > 100 µM (inactive) | > 100 µM (inactive) | > 100 µM (inactive) | > 100 µM (inactive) | > 100 µM (inactive) | – | > 100 µM (inactive) | > 100 µM (inactive) | > 100 µM (inactive) | > 100 µM (inactive) |
| CC(C)CCNC(=O)c1ccc(CNC(=O)/C=C/c2ccc3c(c2)-c2ccccc2C3)cc1 | 22.6 µM (inactive) | 95.9 µM (inactive) | 58.7 µM (inactive) | 36.2 µM (inactive) | > 100 µM (inactive) | > 100 µM (inactive) | – | 30.7 µM (inactive) | > 100 µM (inactive) | 71.3 µM (inactive) | 19.1 µM (inactive) | 42 µM (inactive) | > 100 µM (inactive) | 38.8 µM (inactive) | 88.1 µM (inactive) | 38.7 µM (inactive) | 36.9 µM (inactive) | 41.5 µM (inactive) | 22.9 µM (inactive) | 64.3 µM (inactive) |
| CC(C)(C)n1c(=O)[nH]c(=O)n1C(C)(C)C | – | > 100 µM (inactive) | > 100 µM (inactive) | > 100 µM (inactive) | > 100 µM (inactive) | > 100 µM (inactive) | > 100 µM (inactive) | > 100 µM (inactive) | > 100 µM (inactive) | > 100 µM (inactive) | > 100 µM (inactive) | > 100 µM (inactive) | > 100 µM (inactive) | > 100 µM (inactive) | > 100 µM (inactive) | – | > 100 µM (inactive) | > 100 µM (inactive) | > 100 µM (inactive) | > 100 µM (inactive) |
| S=C1SC(c2ccc(Cl)cc2)(c2ccc(Cl)cc2)c2ccccc21 | 91.8 µM (inactive) | 31 µM (inactive) | > 100 µM (inactive) | 37.2 µM (inactive) | – | 38.5 µM (inactive) | – | 53.7 µM (inactive) | > 100 µM (inactive) | 59.8 µM (inactive) | > 100 µM (inactive) | > 100 µM (inactive) | > 100 µM (inactive) | 43.7 µM (inactive) | 80.5 µM (inactive) | 95.1 µM (inactive) | 64 µM (inactive) | 77.6 µM (inactive) | > 100 µM (inactive) | 64.9 µM (inactive) |
| Cc1ccc(NC(=O)C23CC4CC(CC(C4)C2)C3)c(C(=O)NNC(=O)c2ccc(Cl)cc2)c1 | 12 µM (inactive) | 2.14 µM (inactive) | < 0.01 µM (active) | 21.5 µM (inactive) | – | 17.4 µM (inactive) | 28.3 µM (inactive) | 22.9 µM (inactive) | 19.5 µM (inactive) | 12.9 µM (inactive) | 18.4 µM (inactive) | 16.5 µM (inactive) | 28.4 µM (inactive) | 21.1 µM (inactive) | 27.2 µM (inactive) | 23.8 µM (inactive) | 18.4 µM (inactive) | 20 µM (inactive) | 16.7 µM (inactive) | 28.6 µM (inactive) |
| C/C(=N\O)c1cccc(Nc2nc3ccccc3c3occc23)c1 | – | < 0.01 µM (active) | – | 5.96 µM (inactive) | – | 15 µM (inactive) | 20.9 µM (inactive) | 8.83 µM (inactive) | < 0.01 µM (active) | 14.6 µM (inactive) | 18.3 µM (inactive) | 0.0303 µM (active) | 15.5 µM (inactive) | 8.02 µM (inactive) | 12.9 µM (inactive) | 11.9 µM (inactive) | 13.6 µM (inactive) | 7.33 µM (inactive) | 12.4 µM (inactive) | 7.85 µM (inactive) |
| CC[C@H](C)[C@H](NC(=O)N(CCC#N)CCN(CCN(C(=O)N[C@@H](Cc1ccccc1)C(=O)OC)c1ccccc1)C(=O)N[C@H](C(=O)OC)C(C)C)C(=O)OC | – | 13.5 µM (inactive) | 19.1 µM (inactive) | 4.57 µM (inactive) | 20 µM (inactive) | 27.5 µM (inactive) | 0.879 µM (active) | 18.1 µM (inactive) | 11.5 µM (inactive) | 19 µM (inactive) | 20.5 µM (inactive) | 18.1 µM (inactive) | 25.6 µM (inactive) | 22.8 µM (inactive) | 24.2 µM (inactive) | 21.5 µM (inactive) | 20.5 µM (inactive) | 32.7 µM (inactive) | 22.4 µM (inactive) | – |
| CC(C)(NC(=O)C(C)(C)NC(=O)OCc1ccccc1)C(=O)O (Cbz-[Aib]-[Aib]-OH) | > 100 µM (inactive) | > 100 µM (inactive) | > 100 µM (inactive) | > 100 µM (inactive) | > 100 µM (inactive) | > 100 µM (inactive) | – | > 100 µM (inactive) | > 100 µM (inactive) | > 100 µM (inactive) | > 100 µM (inactive) | > 100 µM (inactive) | > 100 µM (inactive) | > 100 µM (inactive) | > 10 µM (inactive) | > 100 µM (inactive) | > 100 µM (inactive) | > 100 µM (inactive) | > 100 µM (inactive) | > 100 µM (inactive) |
| O=C(/C=C/c1cccc(Br)c1)c1cccs1 | – | 18.4 µM (inactive) | 17.1 µM (inactive) | 15.3 µM (inactive) | 17.7 µM (inactive) | 3.44 µM (inactive) | 3.83 µM (inactive) | 16.6 µM (inactive) | 16.2 µM (inactive) | 23 µM (inactive) | 26 µM (inactive) | 13 µM (inactive) | 14.7 µM (inactive) | 4.23 µM (inactive) | 21 µM (inactive) | 19.6 µM (inactive) | 16.9 µM (inactive) | 17.4 µM (inactive) | 16.5 µM (inactive) | 3.13 µM (inactive) |
